Reference: patent publication US10770169B2, “Method of providing a treatment to a subject based on a dynamic pathway map” (THE REGENTS OF THE UNIVERSITY OF CALIFORNIA, priority 2010, dated 2020)
“Also recorded” adds a separate entry of the source.

Experiments:
Assay type in all cases: cell-based, human
[1] = tested on: panel of 55 breast cancer cell lines; assay: Cell growth inhibition assay (Cell Titer Glo, 72 h, 9 doses; GI50, TGI, LC50); details: value is the negative log10 of mol/L
[2] = tested on: breast cancer cell lines with aberrant vs normal copy number; assay: Association of recurrent copy number changes and response (t-test on GI50); details: FDR p<0.2
From the text: We used a t-test to assess the association between recurrent copy number changes (at 8q24 (MYC), 11q13 (CCND1), 20q13 (STK15/AURKA)) and drug sensitivity. We combined into a single group cell lines with low or no amplification and compared them to cell lines with high amplification. […] Cell lines for which the GI50 was equal to the maximum concentration tested were omitted from analysis. We omitted compounds where any group had fewer than five samples.

[3] = tested on: luminal, basal, claudin-low and ERBB2AMP breast cancer cell lines; assay: Associations of clinically relevant subtypes and response (non-parametric ANOVA or t-test on GI50 ranks); details: for Subtype specificity: Table 6, most sensitive subtype, FDR p<0.20
In short: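 GI50 values were compared between cell-line subtype groups by non-parametric ANOVA or t-test on ranks. P-values from three test sets were combined and FDR-corrected. Significant three-group effects were followed by post-hoc comparison of each group against all others, and FDR p<0.20 counted as significant.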

[4] = 600MPE cell line, censored GI50 values
[5] = AU565 cell line, censored GI50 values
[6] = BT474 cell line, censored GI50 values
[7] = BT483 cell line, censored GI50 values
[8] = CAMA1 cell line, censored GI50 values
[9] = HCC38 cell line, censored GI50 values
[10] = HCC70 cell line, censored GI50 values
[11] = HCC202 cell line, censored GI50 values
[12] = HCC1143 cell line, censored GI50 values
[13] = HCC1187 cell line, censored GI50 values
[14] = HCC1395 cell line, censored GI50 values
[15] = HCC1419 cell line, censored GI50 values
[16] = HCC1428 cell line, censored GI50 values
[17] = HCC1500 cell line, censored GI50 values
[18] = HCC1806 cell line, censored GI50 values
[19] = HCC1937 cell line, censored GI50 values
[20] = HCC1954 cell line, censored GI50 values
[21] = HCC2185 cell line, censored GI50 values
[22] = HCC3153 cell line, censored GI50 values
[23] = MCF7 cell line, censored GI50 values
[24] = MDAMB134VI cell line, censored GI50 values
[25] = MDAMB157 cell line, censored GI50 values
[26] = MDAMB175VII cell line, censored GI50 values
[27] = MDAMB231 cell line, censored GI50 values
[28] = MDAMB361 cell line, censored GI50 values
[29] = MDAMB415 cell line, censored GI50 values
[30] = MDAMB436 cell line, censored GI50 values
[31] = MDAMB453 cell line, censored GI50 values
[32] = MDAMB468 cell line, censored GI50 values
[33] = SKBR3 cell line, censored GI50 values
[34] = SUM149PT cell line, censored GI50 values
[35] = SUM159PT cell line, censored GI50 values
[36] = SUM185PE cell line, censored GI50 values
[37] = SUM1315MO2 cell line, censored GI50 values

CCn1cc(-c2ccnc3[nH]c(-c4cccc(CN(C)C)c4)cc23)c(-c2ccc(NC(=O)N(C)C)cc2)n1 [GSK1070916]
GI50 [1, 4]: 5.10 | GI50 [1, 5]: 5.52 | GI50 [1, 6]: 5.19 | GI50 [1, 7]: 5.35 | GI50 [1, 8]: 5.05 | GI50 [1, 9]: 6.44 | GI50 [1, 10]: 6.59 | GI50 [1, 11]: 6.03 | GI50 [1, 12]: 5.51 | GI50 [1, 13]: 7.95 | GI50 [1, 14]: 6.24 | GI50 [1, 15]: 5.18 | GI50 [1, 16]: 5.19 | GI50 [1, 17]: 5.19 | GI50 [1, 18]: 5.16 | GI50 [1, 19]: 5.42 | GI50 [1, 20]: 5.56 | GI50 [1, 21]: 6.34 | GI50 [1, 22]: 4.95 | GI50 [1, 23]: 5.06 | GI50 [1, 24]: 5.57 | GI50 [1, 25]: 5.95 | GI50 [1, 26]: 5.07 | GI50 [1, 27]: 5.78 | GI50 [1, 28]: 5.19 | GI50 [1, 29]: 5.76 | GI50 [1, 30]: 7.01 | GI50 [1, 31]: 5.51 | GI50 [1, 32]: 7.89 | GI50 [1, 33]: 5.29 | GI50 [1, 34]: 5.48 | GI50 [1, 35]: 5.77 | GI50 [1, 36]: 5.94 | GI50 [1, 37]: 5.89 | GI50 ([1]; cell line 600MPE): 5.10 | GI50 ([1]; cell line AU565): 5.52 | GI50 ([1]; cell line BT474): 5.19 | GI50 ([1]; cell line BT483): 5.35 | GI50 ([1]; cell line CAMA1): 5.05 | GI50 ([1]; cell line HCC38): 6.44 | GI50 ([1]; cell line HCC70): 6.59 | GI50 ([1]; cell line HCC202): 6.03 | GI50 ([1]; cell line HCC1143): 5.51 | GI50 ([1]; cell line HCC1187): 7.95 | GI50 ([1]; cell line HCC1395): 6.24 | GI50 ([1]; cell line HCC1419): 5.18 | GI50 ([1]; cell line HCC1428): 5.19 | GI50 ([1]; cell line HCC1500): 5.19 | GI50 ([1]; cell line HCC1806): 5.16 | GI50 ([1]; cell line HCC1937): 5.42 | GI50 ([1]; cell line HCC1954): 5.56 | GI50 ([1]; cell line HCC2185): 6.34 | GI50 ([1]; cell line HCC3153): 4.95 | GI50 ([1]; cell line MCF7): 5.06 | GI50 ([1]; cell line MDAMB134V): 5.57 | GI50 ([1]; cell line MDAMB157): 5.95 | GI50 ([1]; cell line MDAMB175V): 5.07 | GI50 ([1]; cell line MDAMB231): 5.78 | GI50 ([1]; cell line MDAMB361): 5.19 | GI50 ([1]; cell line MDAMB415): 5.76 | GI50 ([1]; cell line MDAMB436): 7.01 | GI50 ([1]; cell line MDAMB453): 5.51 | GI50 ([1]; cell line MDAMB468): 7.89 | GI50 ([1]; cell line SKBR3): 5.29 | GI50 ([1]; cell line SUM52PE): 6.84 | GI50 ([1]; cell line SUM149PT): 5.48 | GI50 ([1]; cell line SUM159PT): 5.77 | GI50 ([1]; cell line SUM185PE): 5.94 | GI50 ([1]; cell line SUM1315MO): 5.89 | GI50 ([1]; cell line UACC812): 4.51 | GI50 ([1]; cell line UACC893): 5.06 | GI50 ([1]; cell line ZR75B): 5.75 | GI50 ([1]; cell line ZR751): 4.94 | GI50 ([1]; cell line ZR7530): 4.71 | association of response with amplification at 11q13 (CCND1) [2]: associated with sensitivity; also recorded: associated with response | association of response with amplification at 20q13 (STK15/AURKA) [2]: associated with resistance, rather than sensitivity | subtype-specific response (sensitivity by transcriptional subtype) ([3]; GI50 across subtypes): more active against basal and claudin-low cell lines | Subtype specificity [3]: Claudin-low

N.N.O=C([O-])C1(C(=O)[O-])CCC1.[Pt+2] [Carboplatin]
GI50 [1, 4]: 3.82 | GI50 [1, 5]: 4.94 | GI50 [1, 6]: 3.98 | GI50 [1, 7]: 5.82 | GI50 ([1]; BT549 cell line, censored GI50 values): 4.58 | GI50 [1, 8]: 3.72 | GI50 [1, 9]: 4.76 | GI50 [1, 10]: 4.82 | GI50 [1, 11]: 4.44 | GI50 [1, 12]: 3.85 | GI50 [1, 13]: 4.66 | GI50 [1, 14]: 5.00 | GI50 [1, 15]: 4.15 | GI50 [1, 16]: 3.86 | GI50 [1, 17]: 4.69 | GI50 [1, 18]: 4.80 | GI50 [1, 19]: 4.44 | GI50 [1, 20]: 4.37 | GI50 [1, 21]: 4.69 | GI50 [1, 22]: 4.45 | GI50 ([1]; LY2 cell line, censored GI50 values): 4.39 | GI50 [1, 23]: 3.77 | GI50 [1, 24]: 3.73 | GI50 [1, 25]: 4.07 | GI50 [1, 26]: 4.44 | GI50 [1, 27]: 4.09 | GI50 [1, 28]: 4.34 | GI50 [1, 29]: 3.73 | GI50 [1, 30]: 4.18 | GI50 [1, 31]: 4.23 | GI50 [1, 32]: 4.31 | GI50 [1, 33]: 4.87 | GI50 ([1]; SUM52PE cell line, censored GI50 values): 4.71 | GI50 [1, 34]: 4.87 | GI50 [1, 35]: 4.55 | GI50 [1, 36]: 3.90 | GI50 [1, 37]: 4.56 | GI50 ([1]; T47D cell line, censored GI50 values): 3.95 | GI50 ([1]; UACC812 cell line, censored GI50 values): 4.81 | GI50 ([1]; ZR75B cell line, censored GI50 values): 3.52 | GI50 ([1]; ZR751 cell line, censored GI50 values): 4.07 | GI50 ([1]; ZR7530 cell line, censored GI50 values): 4.55 | GI50 ([1]; cell line 600MPE): 3.82 | GI50 ([1]; cell line AU565): 4.94 | GI50 ([1]; cell line BT474): 3.98 | GI50 ([1]; cell line BT483): 5.82 | GI50 ([1]; cell line BT549): 4.58 | GI50 ([1]; cell line CAMA1): 3.72 | GI50 ([1]; cell line HCC38): 4.76 | GI50 ([1]; cell line HCC70): 4.82 | GI50 ([1]; cell line HCC202): 4.44 | GI50 ([1]; cell line HCC1143): 3.85 | GI50 ([1]; cell line HCC1187): 4.66 | GI50 ([1]; cell line HCC1395): 5.00 | GI50 ([1]; cell line HCC1419): 4.15 | GI50 ([1]; cell line HCC1428): 3.86 | GI50 ([1]; cell line HCC1500): 4.69 | GI50 ([1]; cell line HCC1806): 4.80 | GI50 ([1]; cell line HCC1937): 4.44 | GI50 ([1]; cell line HCC1954): 4.37 | GI50 ([1]; cell line HCC2185): 4.69 | GI50 ([1]; cell line HCC3153): 4.45 | GI50 ([1]; cell line LY2): 4.39 | GI50 ([1]; cell line MCF7): 3.77 | GI50 ([1]; cell line MDAMB134V): 3.73 | GI50 ([1]; cell line MDAMB157): 4.07 | GI50 ([1]; cell line MDAMB175V): 4.44 | GI50 ([1]; cell line MDAMB231): 4.09 | GI50 ([1]; cell line MDAMB361): 4.34 | GI50 ([1]; cell line MDAMB415): 3.73 | GI50 ([1]; cell line MDAMB436): 4.18 | GI50 ([1]; cell line MDAMB453): 4.23 | GI50 ([1]; cell line MDAMB468): 4.31 | GI50 ([1]; cell line SKBR3): 4.87 | GI50 ([1]; cell line SUM52PE): 4.71 | GI50 ([1]; cell line SUM149PT): 4.87 | GI50 ([1]; cell line SUM159PT): 4.55 | GI50 ([1]; cell line SUM185PE): 3.90 | GI50 ([1]; cell line SUM1315MO): 4.56 | GI50 ([1]; cell line T47D): 3.95 | GI50 ([1]; cell line UACC812): 4.81 | GI50 ([1]; cell line UACC893): 3.04 | GI50 ([1]; cell line ZR75B): 3.52 | GI50 ([1]; cell line ZR751): 4.07 | GI50 ([1]; cell line ZR7530): 4.55 | association of response with amplification at 11q13 (CCND1) [2]: associated with sensitivity; also recorded: associated with response | Subtype specificity [3]: Basal + Claudin-low
